Laboratory results taken from PMC10341658, “In Silico Screening and Anticancer-Apoptotic Evaluation of Newly Synthesized Thienopyrimidine/Sulfonamide Hybrids” (International Journal of Molecular Sciences, 2023).

Key:
MCF-7 = experiment: MTT anti-proliferative assay, MCF-7; format: cell-based, human; conditions: for IC50: 72 h of exposure, MTT, mean ± S.D. of three observations; for selectivity index (SI) MCF-7: IC50 MCF 10A/IC50 MCF-7, 72 h of exposure
Description: (§1) The cytotoxic effect of the synthesized compounds was estimated against human breast cancer cell lines (MCF-7 and MDA-MB231).
(§2) MTT (3-[4,5-dimethylthiazol-2-yl]-2,5 diphenyltetrazolium bromide) assay was used to study the anticancer activity of all derivatives against breast cancer cells MCF-7and MDAMB231 (obtained from ATCC, Manassas, VA, USA). […] Briefly, cells plated onto 96-well plates (5000 cells/well) were allowed to adhere and form a semi-confluent monolayer. After 24 h, the cells were treated with different concentrations of derivatives (0–100 µM) for 72 h. After the exposure, cytotoxicity was assessed following the MTT Assay Kit protocol (Abcam, Cambridge, UK) as reported earlier.

[1] = system: MCF-10A (Non-Tumorigenic Cells); experiment: MTT cytotoxicity on non-tumorigenic MCF-10A cells; format: cell-based; conditions: Homo sapiens, 72 h of exposure, mean ± S.D. of three observations
Description: as §2, with “After 24 h, the cells were treated with different concentrations of derivatives (0–100 µM) for 72 h.” left out
The selectivity ratio in non-cancerous cells (MCF10A) versus cancer cells (MCF-7 and MDAmb231) was calculated as reported in [26, 27] using the following equation: SI = IC50 of normal cells/IC50 of cancer cells.

MDA-MB-231 = experiment: MTT anti-proliferative assay, MDA-MB-231; format: cell-based, human; conditions: for IC50: Homo sapiens, MDA-MB-231, 72 h of exposure, MTT, mean ± S.D. of three observations; for selectivity index (SI) MDA-MB231: IC50 MCF 10A/IC50 MDA-MB231, 72 h of exposure
Description: as §1, §2

Caspase-3 = Caspase-3 colorimetric activity assay (Ac-DEVD-pNA) in MDA-MB-231 cells; format: cell-based, human; conditions: predetermined IC50 of compound, 24 h
Description: To further explore the cytotoxicity of the prepared hybrids, their influence on Caspase-3 activity was examined. MDA-MB-231 cells were incubated with the predetermined IC50s of tested compounds for a duration of 24 h.
Caspase-3 activity was assessed with a colorimetric assay based on the hydrolysis of acetyl–Asp–Glu–Val–Asp p-nitroanilide (Ac-DEVD-pNA) by Caspase-3 and releasing p-nitroaniline (pNA). MDA-MB-231 cell lysates (100 ng/mL) were diluted and subjected to analysis via Caspase-3 Colorimetric Assay Kit (Sigma-Aldrich, Saint Louis, MO, USA) based on the protocol of the manufacturer. The reaction for color development was held at 37 °C for 2 h, and the value of OD405 was determined using a Varioskan TM LUX multimode microplate reader (Thermo Scientific, Waltham, MA, USA). Each caspase-3 activity was expressed as a value of OD405.

FGFR-1 = target: T1, FGFR-1 (Homo sapiens, UniProt P11362); experiment: FGFR-1 inhibitory activity (FGFR-1 ELISA Kit, MDA-MB-231 cell lysates); format: biochemical
T1 construct: host or cells: MDA-MB-231
Description: To determine basal FGFR-1 activity, a FGFR-1 ELISA Kit was used according to the protocol of the manufacturer (G-Biosciences, Saint Louis, MO, USA). […] After 90 min of incubation at 37 °C, 100 μL Biotinylated Detection Antibody was added and incubated for 60 min. After washing twice each with washing buffer, 100 μL ELISA Detection Reagent was added to each well and incubated for 30 min. After washing, 90 μL of Detection Substrate (TMB) was added to visualize the enzymatic reaction. TMB was catalyzed to produce a blue color that changed into yellow after adding 50 μL of acidic stop solution. The density of yellow is directly proportional to the concentration of FGFR-1 captured on the plate using a Varioskan TM LUX multimode microplate reader (Thermo Scientific, Waltham, MA, USA).

MDA-MB-231 cells = experiment: Annexin V-FITC/PI flow cytometric apoptosis analysis; format: cell-based, human; conditions: MDA-MB-231, Annexin V-FITC/PI, predetermined IC50
Description: Apoptosis and necrosis are two routes that make up the overall division of the cell death pathway carried out by anticancer agents. A double labeling flow cytometry assay using Annexin V-FITC/propidium iodide was performed to identify which mechanism, necrosis, or apoptosis is responsible for cell death.
Apoptosis was detected after 48 h of cell culture using V-FITC apoptosis detection kit (BD Pharmingen TM, Franklin Lakes, NJ, USA). […] After treatment, cells were collected, washed with ice-cold PBS and centrifuged at 200× g for 5 min. The cell pellet was suspended in 200 μL of annexin V-FITC/PI solution for 15 min in the dark. The stained and Annexine V propidium iodide negative cells were evaluated via CytoFLEX flow cytometry (Beckman Coulter, Brea, CA, USA). Ten thousand cells (gated events) were captured for each sample. The mean fluorescence intensity was analyzed with Cytoexpert (Beckman Coulter).

T1 sequence (P11362 22-822): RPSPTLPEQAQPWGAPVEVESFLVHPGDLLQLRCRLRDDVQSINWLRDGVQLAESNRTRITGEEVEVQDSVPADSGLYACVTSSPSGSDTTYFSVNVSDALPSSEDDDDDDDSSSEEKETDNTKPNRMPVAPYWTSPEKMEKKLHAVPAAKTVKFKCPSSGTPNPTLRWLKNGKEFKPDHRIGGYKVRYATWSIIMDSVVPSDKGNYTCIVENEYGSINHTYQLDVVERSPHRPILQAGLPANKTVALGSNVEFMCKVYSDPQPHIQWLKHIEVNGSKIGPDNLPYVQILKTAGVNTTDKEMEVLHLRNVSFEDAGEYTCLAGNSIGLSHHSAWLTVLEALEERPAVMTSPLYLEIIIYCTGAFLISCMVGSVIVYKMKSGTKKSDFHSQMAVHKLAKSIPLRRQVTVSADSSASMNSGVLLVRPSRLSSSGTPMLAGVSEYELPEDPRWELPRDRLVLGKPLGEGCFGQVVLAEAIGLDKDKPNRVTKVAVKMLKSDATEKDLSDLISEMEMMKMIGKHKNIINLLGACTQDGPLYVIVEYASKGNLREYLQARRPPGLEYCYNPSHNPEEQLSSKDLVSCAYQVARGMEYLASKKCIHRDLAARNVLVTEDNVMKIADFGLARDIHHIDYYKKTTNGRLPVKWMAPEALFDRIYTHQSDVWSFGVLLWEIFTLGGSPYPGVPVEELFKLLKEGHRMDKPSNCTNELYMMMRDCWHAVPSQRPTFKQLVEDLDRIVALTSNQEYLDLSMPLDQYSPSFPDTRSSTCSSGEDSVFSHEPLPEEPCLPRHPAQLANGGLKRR

Structure (SMILES)	IC50 (MCF-7)	IC50 (MCF-7; Homo sapiens, MCF7, 72 h)	selectivity index (SI) MCF-7 (MCF-7)	IC50 [1]	IC50 (MDA-MB-231)	selectivity index (SI) MDA-MB231 (MDA-MB-231)	Caspase-3 activity fold change vs control cells (Caspase-3)	IC50 (FGFR-1)	increase of population of late apoptotic cells (MDA-MB-231 cells)	increase of population of necrotic cells (MDA-MB-231 cells)
CCOC(=O)c1sc2ncnc(Cl)c2c1C [Compound 3b]	9.74 ± 0.13 µM	< 10 µM	27.20	265 ± 4.2 µM	4.45 ± 0.31 µM	59.45	2.3 fold	179 ± 5.6 µM	4.8 fold	5.5 fold
N=C(N)NS(=O)(=O)c1ccc(Nc2ncnc3sc4c(c23)CCCC4)cc1 [Compound 4ai, N-carbamimidoyl-4-((5,6,7,8-tetrahydrobenzo[4,5]thieno[2,3-d]pyrimidin-4-yl)amino) benzenesulfonamide]	–	35.8 ± 1.2 µM	12.79	458 ± 12.3 µM	40.2 ± 2.7 µM	11.40	–	132 ± 4.3 µM	–	–
O=S(=O)(Nc1ncccn1)c1ccc(Nc2ncnc3sc4c(c23)CCCC4)cc1 [Compound 4aii, N-(pyrimidin-2-yl)-4-((5,6,7,8-tetrahydrobenzo[4,5]thieno[2,3-d]pyrimidin-4-yl)amino)benzenesulfonamide]	–	22.3 ± 3.1 µM	–	> 1000 µM	20.2 ± 1.5 µM	–	–	119 ± 5.6 µM	–	–
Cc1cc(NS(=O)(=O)c2ccc(Nc3ncnc4sc5c(c34)CCCC5)cc2)no1 [Compound 4aiii, N-(5-methylisoxazol-3-yl)-4-((5,6,7,8-tetrahydrobenzo[4,5]thieno[2,3-d]pyrimidin-4-yl)amino)benzenesulfonamide]	–	67.1 ± 15.7 µM	1.32	88.5 ± 10.1 µM	68.3 ± 4.6 µM	1.29	–	159 ± 5.3 µM	–	–
CCOC(=O)c1sc2ncnc(Nc3ccc(S(=O)(=O)NC(=N)N)cc3)c2c1C [Compound 4bi, Ethyl-4-((4-(N-carbamimidoylsulfamoyl)phenyl)amino)-5-methylthieno[2,3-d]pyrimidine-6-carboxylate]	6.17 ± 1.3 µM	< 10 µM	44.86	277 ± 7.9 µM	8.68 ± 4.3 µM	31.90	–	326 ± 7.4 µM	–	–
CCOC(=O)c1sc2ncnc(Nc3ccc(S(=O)(=O)Nc4ncccn4)cc3)c2c1C [Compound 4bii, Ethyl-5-methyl-4-((4-(N-(pyrimidin-2-yl)sulfamoyl)phenyl)amino)thieno[2,3-d]pyrimidine-6-carboxylate]	–	14 ± 8.2 µM	16.45	230 ± 24.1 µM	15.57 ± 0.1 µM	14.77	–	289 ± 12 µM	–	–
CCOC(=O)c1sc2ncnc(Nc3ccc(S(=O)(=O)Nc4cc(C)on4)cc3)c2c1C [Compound 4biii, Ethyl-5-methyl-4-((4-(N-(5-methylisoxazol-3-yl)sulfamoyl)phenyl)amino) thieno[2,3-d]pyrimidine-6-carboxylate]	9.54 ± 3.1 µM	< 10 µM	25.62	244.5 ± 1.9 µM	17.6 ± 2.3 µM	13.86	–	168 ± 8.3 µM	–	–
COc1cccc2c1C(=O)c1c(O)c3c(c(O)c1C2=O)C[C@@](O)(C(=O)CO)C[C@@H]3O[C@H]1C[C@H](N)[C@H](O)[C@H](C)O1 [Doxorubicin, reference compound]	–	1.6 ± 2.2 µM	–	–	2.2 ± 0.3 µM	–	–	–	–	–
